This note sets out measurements from patent publication US9428536B2, “Immunostimulatory G, U-containing oligoribonucleotides” (Zoetis Belgium SA, priority 2002, dated 2016).

Assay type in all cases: cell-based
Experiment [1] relates to human PBMC. In words: Human PBMC IL-12 p40 secretion, ELISA. Conditions: for IL-12 p40 response of human PBMC (in words): Example 1, FIG. 1, RNA 50 μg/ml with and without DOTAP, R-848 2 μg/ml, LPS 1 μg/ml, Pam3Cys 5 μg/ml, poly IC 50 μg/ml; for IL-12 p40 response of human PBMC (in words) / dose-response of IL-12 p40 secretion: 16 hours; for dose-response of IL-12 p40 secretion: Example 2, FIG. 3, 10, 3 or 1 μg RNA with 10 μg DOTAP per 200 μl well; for EC50 / IL-12 p40 max: Table 2, oligomer length, human PBMC overnight, including DOTAP. Here is the method:
(§1) Human peripheral blood mononuclear cells (PBMCs) were isolated from healthy donors, plated at 3×10^5 cells/well, stimulated in vitro with various test and control immunostimulatory agents for 16 hours, and then analyzed by enzyme-linked immunosorbent assay (ELISA) using matched antibody pairs from BD-Pharmingen for secreted cytokines IL-12 p40 and TNF-α, performed according to the manufacturer's protocol. Also included were certain negative controls, including medium alone and DOTAP (10 μg/200 μl culture well; “Liposomes”) alone. The control immunostimulatory agents included the imidazoquinolone R-848 (2 μg/ml), lipopolysaccharide (LPS; 1 μg/ml), Pam3Cys (5 μg/ml), poly IC (50 μg/ml), and CpG DNA (50 μg/ml). These are reported ligands for TLR7, TLR4, TLR2, TLR3, and TLR9, respectively. Test immunostimulatory agents included the following RNA molecules, each at 50 μg/ml, with and without DOTAP (10 μg total “with Liposomes” and “without Liposomes”, respectively): GUGUUUAC alone; GUAGGCAC alone; GUGUUUAC in combination with GUAGGCAC; GUAGGA; GAAGGCAC; CUAGGCAC; CUCGGCAC; and CCCCCCCC. These RNA oligonucleotides each contained a phosphorothioate linkage between the penultimate and 3′ terminal nucleoside.
The experiments described in the preceding example were repeated with varied concentrations of RNA oligonucleotides in order to assess the dose-response behavior of human PBMCs to G,U-containing RNA oligonucleotides of the invention. A total of 10, 3 or 1 μg RNA was added to 10 μg DOTAP and then added to the 200 μl culture wells. After 16 hours IL-12 p40 and TNF-α ELISAs were performed as described in Example 1. […]
RNA oligomers GUGUGUGU, GUGUGUG, GUGUGU, GUGUG, GUGU, GUG, and GU, with and without DOTAP, were added over a range of concentrations to overnight cultures of human PBMC. Culture supernatants were harvested, and human TNF-α, IL-12 p40, and IFN-α were measured by ELISA using matched antibody pairs from BD-Pharmingen according to the manufacturer's protocol. […]

For experiment [2], the system named is human PBMC. In words: Human PBMC TNF-α secretion, ELISA. The following applies: for TNF-α response of human PBMC (in words): Example 1, FIG. 2, RNA 50 μg/ml; for TNF-α response of human PBMC (in words) / dose-response of TNF-α secretion: 16 hours; for dose-response of TNF-α secretion: Example 2, 10, 3 or 1 μg RNA with 10 μg DOTAP per 200 μl well; for TNF-α max / EC50: human PBMC overnight, including DOTAP; for EC50: read-out: TNF-α EC50. How it is done: as §1
The experiments described in the preceding example were repeated with varied concentrations of RNA oligonucleotides in order to assess the dose-response behavior of human PBMCs to G,U-containing RNA oligonucleotides of the invention. A total of 10, 3 or 1 μg RNA was added to 10 μg DOTAP and then added to the 200 μl culture wells. After 16 hours IL-12 p40 and TNF-α ELISAs were performed as described in Example 1.
(§2) In order to investigate the possibility of using cholesteryl ester-modified RNA oligomer in place of RNA oligomer plus cationic lipid, RNA oligomer GUGUGUGU was prepared with (R 1058) and without (R 1006) a 3′ cholesteryl ester modification. These two RNA oligomers with and without DOTAP, were added over a range of concentrations to overnight cultures of human PBMC. Culture supernatants were harvested, and human TNF-α, IL-12 p40, and IFN-α were measured by ELISA using matched antibody pairs from BD-Pharmingen according to the manufacturer's protocol.
(§3) RNA oligomers GUGUGUGU, GUGUGUG, GUGUGU, GUGUG, GUGU, GUG, and GU, with and without DOTAP, were added over a range of concentrations to overnight cultures of human PBMC. Culture supernatants were harvested, and human TNF-α, IL-12 p40, and IFN-α were measured by ELISA using matched antibody pairs from BD-Pharmingen according to the manufacturer's protocol.
(§4) RNA oligomers, with and without DOTAP, were added over a range of concentrations to overnight cultures of human PBMC. Culture supernatants were harvested, and human TNF-α, IL-12 p40, and IFN-α were measured by ELISA using matched antibody pairs from BD-Pharmingen according to the manufacturer's protocol.
Human PBMC were cultured overnight in the presence of added DNA:RNA conjugate, with and without DOTAP. Culture supernatants were harvested and human TNF-α, IL-6, IL-12 p40, IP-10, and IFN-α were measured by ELISA using matched antibody pairs from BD-Pharmingen according to the manufacturer's protocol.
Human PBMC were cultured overnight in the presence of various concentrations (1, 3, and 10 μg/ml) of tRNA obtained from wheat germ, bovine, yeast, and E. coli sources, added to the culture medium with and without DOTAP. Culture supernatants were harvested and human TNF-α and IL-12 p40 were measured by ELISA using matched antibody pairs from BD-Pharmingen according to the manufacturer's protocol. […] In addition, E. coli tRNA at 3 and 10 μg/ml induced minor amounts of both cytokines even without DOTAP. […]
FIG. 10 depicts the responsiveness of human PBMC to stringent response factor (SRF). SRF is produced by rapidly growing bacteria (in this case Listeria monocytogenes) in rich media until their late log phase. The bacteria were pelleted and resuspended in an equal volume of PBS for 24 h. The mixture is centrifuged to remove the bacteria. […]

The test system of experiment [3] is human PBMC. In words: Human PBMC IFN-α secretion, ELISA. Conditions: human PBMC overnight, including DOTAP; for EC50: read-out: IFN-α EC50. Here is the method:
as §2, §3, §4
In like manner, an all-phosphodiester 40-mer capable of forming a stem-loop structure and having a base sequence as provided by 5′-[…]-3′ (R 1041; SEQ ID NO:10) was synthesized and tested in overnight culture with human PBMC.
For orientation: In an ELISA, binding on a coated surface is turned into a signal by an enzyme label.

Setting [4] is: Table 3, internucleoside linkages.

GUAGGA: the “IL-12 p40 response of human PBMC (in words)” value in the experiment on human PBMC [1] is listed as “little, if any immunostimulatory effect”. In the experiment with human PBMC [2], the “TNF-α response of human PBMC (in words)” value is given as “did not secrete significant amounts”.

Take CUCGGCAC: the “dose-response of IL-12 p40 secretion” value in the experiment with human PBMC [1] is “increasing amounts”. The “dose-response of TNF-α secretion” value in the experiment with human PBMC [2] is “increasing amounts”.

In the case of G*U_G*U_G*U*G*U [R 1055], in the experiment with human PBMC [2] (setting [4]), the TNF-α max worked out at 20000 pg/mL and the EC50 was > 20 µM.

For the substance GUGUUUAC, the “dose-response of IL-12 p40 secretion” value in the experiment on human PBMC [1] is “increasing amounts”. For the same substance, the “dose-response of TNF-α secretion” value with human PBMC [2] was “increasing amounts”.

GUG [R 1052]: in the experiment on human PBMC [1], the half-maximal effective concentration (EC50) was > 20 µM and the “IL-12 p40 max” value was 6000 pg/mL. For the same substance, in the experiment with human PBMC [3] (Table 2, oligomer length), the IFN-α max came out at 800 pg/mL and the EC50 came out at 5.5 µM.

As for G_U_G_U_G_U_G_U [R 1057], in the experiment on human PBMC [3] (setting [4]), the IFN-α max stood at 6000 pg/mL and the EC50 worked out at 0.1 µM.

For the substance CUAGGCAC, in the experiment on human PBMC [1], the “dose-response of IL-12 p40 secretion” value is “increasing amounts”. Further, the “dose-response of TNF-α secretion” value with human PBMC [2] is “increasing amounts”.

For the substance GAAGGCAC, in the experiment with human PBMC [1], the “IL-12 p40 response of human PBMC (in words)” value was “did not secrete significant amounts” and the “dose-response of IL-12 p40 secretion” value is reported as “appeared not to secrete”. Further, in the experiment on human PBMC [2], the “TNF-α response of human PBMC (in words)” value is recorded as “did not secrete significant amounts” and the “dose-response of TNF-α secretion” value is on record as “did not appear to secrete significant amounts”.

Consider GUGUGUG [R 1048], for which, in the experiment on human PBMC [1], the half-maximal effective concentration (EC50) worked out at 2.6 µM and the “IL-12 p40 max” value came out at 10000 pg/mL. Moreover, in the experiment on human PBMC [2] (Table 2, oligomer length), the TNF-α max came to 30000 pg/mL and the EC50 was found to be 2.2 µM. In addition, in the experiment with human PBMC [3] (Table 2, oligomer length), the IFN-α max worked out at 2700 pg/mL and the EC50 is 4.6 µM.

With GUGUG [R 1050], in the experiment on human PBMC [1], the EC50 was 3.9 µM and the “IL-12 p40 max” value worked out at 14000 pg/mL. In the experiment with human PBMC [2] (Table 2, oligomer length), the TNF-α max came to 40000 pg/mL and the EC50 is 7.6 µM. Moreover, in the experiment on human PBMC [3] (Table 2, oligomer length), the IFN-α max came to 400 pg/mL and the EC50 worked out at 6.9 µM.

What is called EC50 is the concentration giving half of the maximal effect.
